Patent US20100256098A1, “COMPOUNDS FOR INHIBITING WIP1, PRODRUGS AND COMPOSITIONS THEREOF, AND RELATED METHODS” (The United States of America, as represented by the …, priority 2007, published 2010)
Changes are numbered by the printed parent chain. Like-named read-outs stand apart in the source and are kept apart here.

Legend:
Wip1 in MCF7 cells = experiment: Western blot of phospho-p38 MAPK and p38 MAPK in MCF7 cells treated with compound; assay type: cell-based, human; details: DMSO negative and UV (25J/m2) positive controls
Protocol: The selectivity of three compounds in inhibiting Wip1 was tested on human breast cancer cell line MCF7 cells, the latter strongly expressing Wip1. These cells were treated with each compound, and cell lysates were collected after the indicated time point. 20 ug of total protein extracts were subjected to SDS-PAGE, and levels of phospho-p38 MAPK and p38 MAPK were examined by Western blot analysis using specific antibodies. Dimethyl sulphoxide (DMSO) and UV (25J/m2) treated cells were used as the negative and positive controls respectively.

[1] = target: T1, human Wip1 protein (rWip1, catalytic domain, residues 1-420) (Homo sapiens, UniProt O15297); experiment: Wip1 phosphatase assay (malachite green/molybdate-based)
T1 sequence (O15297 1-420): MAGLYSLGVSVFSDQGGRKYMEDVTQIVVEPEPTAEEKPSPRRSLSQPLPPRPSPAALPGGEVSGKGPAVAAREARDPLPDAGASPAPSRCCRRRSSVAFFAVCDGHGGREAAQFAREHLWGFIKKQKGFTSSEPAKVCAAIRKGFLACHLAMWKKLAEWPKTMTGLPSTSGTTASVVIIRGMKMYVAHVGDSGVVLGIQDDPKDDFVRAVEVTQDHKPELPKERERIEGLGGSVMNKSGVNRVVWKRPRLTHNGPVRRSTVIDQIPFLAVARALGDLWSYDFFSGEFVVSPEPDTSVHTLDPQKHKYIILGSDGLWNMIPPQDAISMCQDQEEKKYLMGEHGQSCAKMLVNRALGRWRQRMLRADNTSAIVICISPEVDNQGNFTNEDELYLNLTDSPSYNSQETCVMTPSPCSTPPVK
Protocol: (§1) An N-terminal histidine-tagged, catalytic domain of the human Wip1 protein (amino acid residues 1-420), rWip1, and K238D mutant of Wip1 were expressed in Escherichia coli BL21 (DE3) and purified as previously reported in Yamaguchi et al., supra.
(§2) Phosphatase activity was measured by a malachite green/molybdate-based assay (see, e.g., Yamaguchi et al., Biochemistry, 44:5285-5294 (2005), Harder et al, Biochem J., 298: 395-401 (1994), and Donella-Deana et al., Methods Enzymol., 366: 3-17 (2003)). […] The inhibitors were pre-equilibrated at 30° C. for 6 min. The inhibition percentages were estimated by the following equation.
(§3) where A and A100 denote absorbance intensities at 650 nm with and without the inhibitor, respectively. A0 denotes absorbance of the sample without phosphatase. The IC50 values were estimated by a sigmoidal dose-response equation. The apparent inhibitory constant (Ki) values were estimated using the following equation (see, e.g., Cheng et al., Biochem. Pharmacol., 22: 3099-3108 (1973)):

[2] = test system: human Wip1 protein (rWip1, catalytic domain, residues 1-420); experiment: as above; details: versus K238D mutant and PP2Cα
Protocol: as §1, §2, §3

Wip1(K238D) = target: T2, Wip1(K238D) (Homo sapiens, UniProt O15297, K238D); experiment: Phosphatase assay with the K238D mutant of Wip1; details: for Ki: read-out: Ki (μM) Wip1(K238D), Table 2, K238D mutant of Wip1, NI = no inhibition observed
T2 sequence (O15297 1-420 K238D): T1 sequence (O15297 1-420) with K238D
Protocol: (§4) The inhibitors were pre-equilibrated at 30° C. for 6 min. The inhibition percentages were estimated by the following equation.
as §3
(§5) wherein [S] is the concentration of the substrate peptide and Km is the Michaelis constant.
(§6) The selectivity of the compounds was determined. Certain compounds were tested to determine their selectivity in inhibiting Wip1, PP2Cα, and a K238D mutant of Wip1 according to the methods described above.

PP2Cα = target: T3, PP2Cα (Homo sapiens, UniProt P35813); experiment: Phosphatase assay with PP2Cα; details: for Ki: read-out: Ki (μM) PP2Cα, Table 2, NI = no inhibition observed
T3 sequence (P35813 1-382): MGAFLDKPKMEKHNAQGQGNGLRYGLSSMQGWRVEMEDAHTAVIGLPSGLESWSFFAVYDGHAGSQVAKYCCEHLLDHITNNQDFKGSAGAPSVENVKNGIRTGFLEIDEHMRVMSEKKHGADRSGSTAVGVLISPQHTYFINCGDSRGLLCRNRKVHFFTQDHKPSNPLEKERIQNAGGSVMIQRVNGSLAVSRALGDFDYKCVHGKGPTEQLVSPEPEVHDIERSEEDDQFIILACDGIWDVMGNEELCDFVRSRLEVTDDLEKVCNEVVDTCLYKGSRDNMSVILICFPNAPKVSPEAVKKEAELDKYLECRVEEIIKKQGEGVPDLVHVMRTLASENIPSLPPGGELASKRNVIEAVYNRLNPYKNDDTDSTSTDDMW
Protocol: as §4, §3, §5, §6

SMILES: CCCCC(CCCC)Cc1c(-c2ccc(OP(=O)(OCCSC(=O)C(C)(C)C)Oc3ccccc3)c(Cl)c2)c(C(=O)O)c(Cc2ccc(Cl)cc2)n1CCCOP(=O)(OCCSC(=O)C(C)(C)C)Oc1ccccc1 (stereo not drawn) [Compound 1A]
- effectiveness in inhibiting Wip1 (levels of phospho-p38 MAPK) (Wip1 in MCF7 cells): effective

SMILES: CCc1c(-c2ccc(OP(=O)(O)O)cc2)c(C(N)=O)c(C)n1CCOP(=O)(O)O [Compound 1]
- Ki ([1]; pH 7.5): > 100 µM

SMILES: CCCc1c(-c2ccc(OP(=O)(O)O)cc2)c(C(N)=O)c(C)n1CCOP(=O)(O)O [Compound 2]
- Ki ([1]; pH 7.5): > 100 µM

SMILES: CCCC(C)Cc1c(-c2ccc(OP(=O)(O)O)cc2)c(C(N)=O)c(C)n1CCOP(=O)(O)O (stereo not drawn) [Compound 3]
- Ki [1]: 61 ± 15 µM

SMILES: Cc1c(C(N)=O)c(-c2ccc(OP(=O)(O)O)cc2)c(CC2CCCCC2)n1CCOP(=O)(O)O [Compound 4]
- Ki [1]: 81 ± 5 µM

SMILES: CCCCCc1c(-c2ccc(OP(=O)(O)O)c(Cl)c2)c(C(N)=O)c(C)n1CCOP(=O)(O)O [Compound 5]
- Ki [1]: 77 ± 12 µM

SMILES: Cc1c(C(N)=O)c(-c2ccc(OP(=O)(O)O)c(Cl)c2)c(CC(C)C)n1CCOP(=O)(O)O [Compound 6]
- Ki [1]: 38 ± 8 µM

SMILES: CCCC(C)Cc1c(-c2ccc(OP(=O)(O)O)c(Cl)c2)c(C(N)=O)c(C)n1CCOP(=O)(O)O (stereo not drawn) [Compound 7]
- Ki [1]: 40 ± 1 µM

SMILES: CCCC(C)Cc1c(-c2ccc(OP(=O)(O)O)cc2)c(C(N)=O)c(C)n1CCCOP(=O)(O)O (stereo not drawn) [Compound 9]
- Ki [1]: 22 ± 3 µM

SMILES: Cc1c(C(N)=O)c(-c2ccc(OP(=O)(O)O)c(Cl)c2)c(CC(C)C)n1CCCOP(=O)(O)O [Compound 10]
- Ki [1]: 28 ± 1 µM

SMILES: CCCC(C)Cc1c(-c2ccc(OP(=O)(O)O)c(Cl)c2)c(C(N)=O)c(C)n1CCCCOP(=O)(O)O (stereo not drawn) [Compound 11]
- Ki ([1]; pH 7.5): > 100 µM

SMILES: CCCC(C)Cc1c(-c2ccc(OP(=O)(O)O)c(Cl)c2)c(C(=O)NCCC(N)=O)c(C)n1CCCOP(=O)(O)O (stereo not drawn) [Compound 12]
- Ki ([1]; pH 7.5): > 100 µM

SMILES: CCCC(C)Cc1c(-c2ccc(OP(=O)(O)O)c(Cl)c2)c(C(=O)NC(CC(C)C)C(N)=O)c(C)n1CCCOP(=O)(O)O (stereo not drawn) [Compound 13]
- Ki [1]: 22 ± 2 µM

SMILES: CCCCC(C)c1c(C(N)=O)c(-c2ccc(OP(=O)(O)O)c(Cl)c2)c(C)n1CCCOP(=O)(O)O (stereo not drawn) [Compound 14]
- Ki ([1]; pH 7.5): > 100 µM

SMILES: CCCC(C)Cc1c(-c2ccc(OP(=O)(O)O)cc2)c(C(N)=O)c(CC(C)C)n1CCCOP(=O)(O)O (stereo not drawn) [Compound 15]
- Ki [1]: 48 ± 5 µM

SMILES: CCCC(C)Cc1c(-c2ccc(OP(=O)(O)O)c(Cl)c2)c(C(N)=O)c(CCc2ccccc2)n1CCCOP(=O)(O)O (stereo not drawn) [Compound 18]
- Ki [1]: 15 ± 1 µM

SMILES: CC(C)Cc1c(-c2ccc(OP(=O)(O)O)c(Cl)c2)c(C(N)=O)c(Cc2ccc(Cl)cc2)n1CCCOP(=O)(O)O [Compound 21]
- Ki [1]: 22 ± 1 µM

SMILES: CCCC(C)Cc1c(-c2ccc(OP(=O)(O)O)c(Cl)c2)c(C(N)=O)c(Cc2ccc(F)cc2)n1CCCOP(=O)(O)O (stereo not drawn) [Compound 23]
- Ki [1]: 16 ± 2 µM

SMILES: CCCC(C)Cc1c(-c2ccc(OP(=O)(O)O)c(Cl)c2)c(C(N)=O)c(CCc2ccc(Cl)cc2)n1CCCOP(=O)(O)O (stereo not drawn) [Compound 24]
- selectivity for Wip1 [2]: highly selective
- Ki [1]: 5.7 ± 0.4 µM
- inhibition of the K238D mutant (Wip1(K238D)): no inhibition
- Ki (Wip1(K238D)): > 100 µM
- inhibition of PP2Cα (PP2Cα): no inhibition
- Ki (PP2Cα): > 100 µM

SMILES: CCC[C@H](C)Cc1c(-c2ccc(OP(=O)(O)O)c(Cl)c2)c(C(N)=O)c(CCc2ccc(Cl)cc2)n1CCCOP(=O)(O)O [Compound 25]
- selectivity for Wip1 [2]: highly selective
- Ki [1]: 4.7 ± 0.7 µM
- inhibition of the K238D mutant (Wip1(K238D)): no inhibition
- Ki (Wip1(K238D)): > 100 µM
- inhibition of PP2Cα (PP2Cα): no inhibition
- Ki (PP2Cα): > 100 µM

SMILES: CCC[C@@H](C)Cc1c(-c2ccc(OP(=O)(O)O)c(Cl)c2)c(C(N)=O)c(CCc2ccc(Cl)cc2)n1CCCOP(=O)(O)O [Compound 26]
- selectivity for Wip1 [2]: highly selective
- Ki [1]: 10 ± 1 µM
- inhibition of the K238D mutant (Wip1(K238D)): no inhibition
- Ki (Wip1(K238D)): > 100 µM
- inhibition of PP2Cα (PP2Cα): no inhibition
- Ki (PP2Cα): > 100 µM
